Experimental findings from PubChem BioAssay AID434987 (Southern Research Specialized Biocontainment Screening …, 2010) are described below.

Calls of active or inactive are those of the source. No rule for the calls is given here. A value given as a limit tells only on which side of the number the result lay.

The test deals with M. tuberculosis H37Rv growth inhibition with meropenem. In words: dose response, H37Rv, with and without meropenem (AID 434987).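 Also: growth over 7 days at 37 °C before Alamar Blue read on day 9.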
Setting [1] is: M. tuberculosis H37Rv growth inhibition, measured here: IC50 without meropenem.
Setting [2] is: M. tuberculosis H37Rv growth inhibition, measured here: IC90 without meropenem.
The mark [3] stands for this setting: measured here: IC90 with meropenem.

For orientation: IC50 means the point on the concentration scale where inhibition reaches its midpoint. As usually defined, the IC90 is the point of the concentration-response curve where the effect stands at 90%. A low value points to an effect from little substance. For the molecule `COc1cc(NC(=O)c2cccc(Cl)c2)c(OC)cc1NC(=O)CN1CCCCC1`, the IC50 is 7.42 µM. The same molecule returned an IC50 under setting [1] of 23.7 µM. The 90% effect concentration (IC90) under setting [2] was determined as 61.4 µM. This molecule came in with a 90% effect concentration (IC90) under setting [3] of 75.5 µM.
On to `CCOC(=O)Cn1nc(-c2ccc(C)cc2)c2ccccc2c1=O`, for which the concentration for half-maximal inhibition (IC50) was 17.5 µM. Under setting [1], the concentration for half-maximal inhibition (IC50) was above 100 µM. Under setting [2], the concentration for an effect of 90% (IC90) is above 100 µM. The molecule also displayed a concentration for an effect of 90% (IC90) under setting [3] above 50 µM.
`CN=C(Nc1cc(Cl)ccc1Cl)SC1CC(=O)N(c2ccc(C(=O)OC)cc2)C1=O` (stereo not drawn): the IC50 was > 100 µM (inactive). Under setting [1], the IC50 is above 100 µM. For the same molecule, the concentration for an effect of 90% (IC90) under setting [2] was above 100 µM. The IC90 under setting [3] was above 100 µM.
Turning to `CCc1ccc2oc(-c3cc(N)cc(C)c3O)nc2c1`, the IC50 was 76.1 µM (inactive). Besides, under setting [1], the IC50 came out at 93.2 µM. This molecule also returned an IC90 under setting [2] above 100 µM. Besides, the concentration for an effect of 90% (IC90) under setting [3] is above 100 µM.
As for `CCCCn1nc2cc(C(=O)NCC34CC5CC(CC(C5)C3)C4)ccc2c1OCC`, the IC50 is 55.5 µM (inactive). The IC50 under setting [1] was above 100 µM. Also, under setting [2], the 90% effect concentration (IC90) was above 100 µM. For the same molecule, the 90% effect concentration (IC90) under setting [3] is above 100 µM.
As to `Cc1nn(C)c(C)c1NC(=O)CCCSc1nc(-c2ccco2)cc(C(F)(F)F)n1`, the IC50 was > 100 µM (inactive). Further, under setting [1], the IC50 was above 100 µM. Under setting [2], this molecule yielded a 90% effect concentration (IC90) above 100 µM. The IC90 under setting [3] is above 100 µM.
For the molecule `Cc1cc(C(=O)Nc2nnc(-c3ccccc3)s2)no1`, the IC50 was 45.1 µM (inactive). The molecule further came in with an IC50 under setting [1] of 48.4 µM. Under setting [2], this molecule had a 90% effect concentration (IC90) above 100 µM. The concentration for an effect of 90% (IC90) under setting [3] was above 100 µM.
Turning to `Cc1ccc(C)c(S(=O)(=O)N2CCN(CC(=O)NC(C)c3ccccc3)CC2)c1` (stereo not drawn), the IC50 is 98 µM (inactive). Under setting [1], this molecule displayed an IC50 of 99.7 µM. The molecule also yielded an IC90 under setting [2] above 100 µM. The 90% effect concentration (IC90) under setting [3] is above 100 µM.
For `NC(=O)[C@@H]1CC2(CC(c3cccc(NC(=O)COc4ccc(Cl)cc4)c3)=NO2)CN1C(=O)COc1ccc(Cl)cc1` (stereo partly drawn), the IC50 is 75.4 µM (inactive). The same molecule displayed a half-maximal inhibitory concentration (IC50) under setting [1] above 100 µM. Further, the IC90 under setting [2] is above 100 µM. Also, the 90% effect concentration (IC90) under setting [3] was above 100 µM.
As to `O=C(NNC(=O)c1cc(OCC(F)(F)F)ccc1OCC(F)(F)F)c1cccc(C(F)(F)F)c1`, the IC50 is > 100 µM (inactive). This molecule also showed an IC50 under setting [1] above 100 µM. Also, the IC90 under setting [2] was above 100 µM. The IC90 under setting [3] was above 100 µM.
In the case of `COc1ccc(/C=N/Nc2nc(-c3ccc(C)cc3)c(NC(C)=O)s2)cc1OC`, the IC50 is > 100 µM (inactive). Moreover, the IC50 under setting [1] was above 100 µM. Further, the IC90 under setting [2] is above 100 µM. Also, the IC90 under setting [3] is above 100 µM.
Turning to `O=C1CS/C(=N/N=C2C3CC4CC(C3)CC2C4)N1`, the IC50 was 11.7 µM (inactive). This molecule registered an IC50 under setting [1] of 23.5 µM. Also, the IC90 under setting [2] was determined as 32.5 µM. This molecule also yielded an IC90 under setting [3] of 13.8 µM.
For `CSc1nc2cc3c(cc2n1C(=O)c1ccc(C)cc1)OCCO3`, in that order: 5.15 µM, above 100 µM, above 100 µM and above 100 µM.
For `CCCCCNCc1cccc(Br)c1`, the IC50 was 48.5 µM (inactive). Under setting [1], this molecule displayed an IC50 above 100 µM. Moreover, the IC90 under setting [2] is above 100 µM. The same molecule displayed an IC90 under setting [3] above 100 µM.
As to `COc1ccc(-c2cc3cc(OC)c(OC)cc3c(C)n2)cc1`, the IC50 is > 100 µM (inactive). Besides, the IC50 under setting [1] is above 100 µM. The molecule also registered an IC90 under setting [2] above 100 µM. The concentration for an effect of 90% (IC90) under setting [3] was above 100 µM.
Turning to `CSc1ccccc1NC(=O)c1c(Br)cnn1C`, the IC50 is 28.4 µM. Under setting [1], this molecule returned a half-inhibitory concentration (IC50) of 82.7 µM. For the same molecule, the IC90 under setting [2] was above 100 µM. The molecule further returned an IC90 under setting [3] above 100 µM.
`O=C(COC(=O)C1=COCCO1)Nc1ccc2c(c1)OCO2`: the 50% inhibitory concentration (IC50) is 3.86 µM. Under setting [1], the IC50 amounted to 50 µM. The molecule further showed an IC90 under setting [2] above 100 µM. The 90% effect concentration (IC90) under setting [3] was above 100 µM.
With `CCC(C(=O)NC1C(=O)N2C(C(=O)O)=C(CSc3nnc(C)s3)CSC12)c1ccccc1` (stereo not drawn), the IC50 was 0.587 µM. Also, the 50% inhibitory concentration (IC50) under setting [1] is above 100 µM. Further, under setting [2], the concentration for an effect of 90% (IC90) was above 100 µM. The molecule also came in with an IC90 under setting [3] of 1.57 µM.
In the case of `CCOCC(=O)Nc1cc(C(F)(F)F)ccc1Oc1cccc(Br)c1`, the IC50 was 56.9 µM (inactive). Under setting [1], the half-inhibitory concentration (IC50) is above 100 µM. The same molecule had an IC90 under setting [2] above 100 µM. Under setting [3], this molecule returned a concentration for an effect of 90% (IC90) above 100 µM.
As for `COc1ccc(C(=O)Nc2oc(-c3ccccc3)c(-c3ccccc3)c2C#N)cc1OC`, the IC50 is 25.2 µM (inactive). The same molecule registered an IC50 under setting [1] of 38.7 µM. The molecule further had an IC90 under setting [2] above 100 µM. Under setting [3], the IC90 was above 100 µM.
Turning to `CCOC(=O)c1ccc(N2CN(CCc3ccccc3)CNC2=S)cc1`, the IC50 was 26.9 µM. Further, the half-maximal inhibitory concentration (IC50) under setting [1] was determined as 91.5 µM. The molecule also showed a concentration for an effect of 90% (IC90) under setting [2] above 100 µM. For the same molecule, the IC90 under setting [3] was above 100 µM.
For the molecule `NC(=S)N/N=C/c1cccc(/C=N/NC(N)=S)c1`, the IC50 is 25 µM. Under setting [1], the IC50 is above 100 µM. Under setting [2], this molecule came in with an IC90 above 100 µM. This molecule also had a 90% effect concentration (IC90) under setting [3] above 100 µM.
